Experimental data reported in patent publication US7371749B2, “Benzothiazole derivatives” (Hoffmann-La Roche Inc., priority 2004, dated 2008).

Legend:
[1] = biological target: T1, human adenosine A2A receptor (Homo sapiens, UniProt P29274); test: [3H]-SCH-58261 binding assay on human adenosine A2A receptor expressed in CHO cell membranes (SPA); details: displacement of [3H]-SCH-58261 (1 nM); recombinant receptor in CHO membranes; Ki by Cheng-Prussoff equation; read-out: hA2 (pKi) (converted)
T1 construct: expressed in transfected cells; host or cells: CHO cells, semliki forest virus expression system; membrane preparation
Procedure: Human Adenosine A2A Receptor
The human adenosine A2A receptor was recombinantly expressed in Chinese hamster ovary (CHO) cells using the semliki forest virus expression system. Cells were harvested, washed twice by centrifugation, homogenized and again washed by centrifugation. The final washed membrane pellet was suspended in a Tris (50 mM) buffer containing 120 mM NaCl, 5 mM KCl, 2 mM CaCl2 and 10 mM MgCl2 (pH 7.4) (buffer A). The [^3H]-SCH-58261 (Dionisotti et al., 1997, Br J Pharmacol 121, 353; 1 nM) binding assay was carried out in 96-well plates in the presence of 2.5 μg of membrane protein, 0.5 mg of Ysi-poly-1-lysine SPA beads and 0.1 U adenosine deaminase in a final volume of 200 μl of buffer A. Non-specific binding was defined using xanthine amine congener (XAC; 2 μM). Compounds were tested at 10 concentrations from 10 μM-0.3 nM. All assays were conducted in duplicate and repeated at least two times. Assay plates were incubated for 1 hour at room temperature before centrifugation and then bound ligand determined using a Packard Topcount scintillation counter. IC50 values were calculated using a non-linear curve fitting program and Ki values calculated using the Cheng-Prussoff equation.

T1 sequence (P29274 whole entry): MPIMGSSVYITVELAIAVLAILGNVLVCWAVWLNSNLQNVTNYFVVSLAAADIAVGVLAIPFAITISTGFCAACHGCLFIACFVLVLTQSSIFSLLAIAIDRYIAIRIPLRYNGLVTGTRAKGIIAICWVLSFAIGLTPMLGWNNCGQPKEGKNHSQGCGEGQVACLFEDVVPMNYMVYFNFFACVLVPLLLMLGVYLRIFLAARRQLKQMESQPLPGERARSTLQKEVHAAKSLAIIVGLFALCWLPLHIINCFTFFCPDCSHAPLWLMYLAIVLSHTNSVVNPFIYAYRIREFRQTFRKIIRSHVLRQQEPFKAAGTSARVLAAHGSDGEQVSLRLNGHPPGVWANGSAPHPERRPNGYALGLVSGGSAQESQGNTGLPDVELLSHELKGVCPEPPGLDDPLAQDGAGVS

| SMILES | Ki [1] | melting point |
| --- | --- | --- |
| COCCN(C)Cc1ncc(C(=O)Nc2nc3c(OC)ccc(N4CCOCC4)c3s2)n1C [Example 1, 2-{[(2-Methoxy-ethyl)-methyl-amino]-methyl}-3-methyl-3H-imidazole-4-carboxylic acid (4-methoxy-7-morpholin-4-yl-benzothiazol-2-yl)-amide] | 0.501 nM | 176 to 178 °C |
| COc1ccc(N2CCOCC2)c2sc(NC(=O)c3cnn(CCN4CCOCC4)c3)nc12 [Example 7, 1-(2-Morpholin-4-yl-ethyl)-1H-pyrazole-4-carboxylic acid (4-methoxy-7-morpholin-4-yl-benzothiazol-2-yl)-amide] | 1 nM | 204 to 207 °C |
| COc1ccc(N2CCOCC2)c2sc(NC(=O)c3cnn(CCN4CCCC4)c3)nc12 [Example 5, 1-(2-Pyrrolidin-1-yl-ethyl)-1H-pyrazole-4-carboxylic acid (4-methoxy-7-morpholin-4-yl-benzothiazol-2-yl)-amide] | 0.794 nM | 190 to 192 °C |
| COc1ccc(N2CCOCC2)c2sc(NC(=O)c3cnn(CCN(C)C)c3)nc12 [Example 6, 1-(2-Dimethylamino-ethyl)-1H-pyrazole-4-carboxylic acid (4-methoxy-7-morpholin-4-yl-benzothiazol-2-yl)-amide] | 0.794 nM | 203 to 205 °C |
| COCCn1cc(C(=O)Nc2nc3c(OC)ccc(N4CCOCC4)c3s2)cn1 [Example 8, 1-(2-Methoxy-ethyl)-1H-pyrazole-4-carboxylic acid (4-methoxy-7-morpholin-4-yl-benzothiazol-2-yl)-amide] | 0.398 nM | – |
| COc1ccc(N2CCOCC2)c2sc(NC(=O)c3cnc(CN(C)C)n3C)nc12 [Example 2, 2-Dimethylaminomethyl-3-methyl-3H-imidazole-4-carboxylic acid (4-methoxy-7-morpholin-4-yl-benzothiazol-2-yl)-amide] | 0.631 nM | 229 to 231 °C |

Now from value to compound:

| Ki [1] | melting point | SMILES |
| --- | --- | --- |
| 1.58 nM | 255 °C | COc1ccc(N2CCOCC2)c2sc(NC(=O)c3cnc(CN4CCCC4)n3C)nc12 [Example 4, 3-Methyl-2-pyrrolidin-1-ylmethyl-3H-imidazole-4-carboxylic acid (4-methoxy-7-morpholin-4-yl-benzothiazol-2-yl)-amide] |
| 0.631 nM | 244 to 246 °C | COc1ccc(N2CCOCC2)c2sc(NC(=O)c3cnc(CN4CCOCC4)n3C)nc12 [Example 3, 3-Methyl-2-morpholin-4-ylmethyl-3H-imidazole-4-carboxylic acid (4-methoxy-7-morpholin-4-yl-benzothiazol-2-yl)-amide] |
| 0.501 nM | 242 to 245 °C | COCc1ncc(C(=O)Nc2nc3c(OC)ccc(N4CCOCC4)c3s2)n1C [Example 9, 2-Methoxymethyl-3-methyl-3H-imidazole-4-carboxylic acid (4-methoxy-7-morpholin-4-yl-benzothiazol-2-yl)-amide] |
